Measured values taken from the NIST ThermoML archive (doi:10.1016/j.tca.2014.07.025).

Assay: mn = molality of the nth substance listed, in mol/kg
Details: 100 kPa, Liquid; for speed of sound: Frequency=3 MHz, Sing-around technique in a fixed-path interferometer; for mass density: Vibrating tube method

NCC(=O)NCC(=O)O [glycylglycine] + O
Details	mass density, 305.15 K [kg/m3]	mass density, 310.15 K [kg/m3]	mass density, 315.15 K [kg/m3]	speed of sound, 305.15 K [m/s]	speed of sound, 310.15 K [m/s]	speed of sound, 315.15 K [m/s]
m1 = 0.00206	995.2	993.513	991.618	1514.1	1524.1	1532.4
m1 = 0.00597	995.41	993.721	991.824	1514.8	1524.7	1532.9
m1 = 0.00797	995.517	993.827	991.929	1515.2	1525.1	1533.5
m1 = 0.01021	995.637	993.946	992.047	1515.4	1525.2	1533.6
m1 = 0.02015	996.168	994.474	992.568	1515.8	1525.6	1534
m1 = 0.05037	997.778	996.073	994.147	1517.8	1527.5	1535.8
m1 = 0.1008	1000.45	998.723	996.764	1521.6	1531.2	1539.4
m1 = 0.2021	1005.75	1003.99	1001.97	1529.5	1538.8	1546.9
m1 = 0.2959	1010.58	1008.79	1006.71	1536	1545.4	1553
m1 = 0.4	1015.86	1014.03	1011.88	1542.5	1551.6	1559.3
